Experimental findings from US10239832B2, “N-(1-hydroxy-3-(pyrrolidinyl)propan-2-yl)pyrrolidine-3-carboxamide derivatives as glucosylceramide synthase inhibitors” (BIOMARIN PHARMACEUTICAL INC., priority 2013, dated 2019) are described below.

For this assay, the target named is T1, GCS (Canis lupus familiaris, UniProt A0A8I3MXG6).
T1 construct: endogenous in cells; host or cells: MDCK (Madin-Darby canine kidney) cells, whole-cell lysate
T1 sequence (A0A8I3MXG6 1-394): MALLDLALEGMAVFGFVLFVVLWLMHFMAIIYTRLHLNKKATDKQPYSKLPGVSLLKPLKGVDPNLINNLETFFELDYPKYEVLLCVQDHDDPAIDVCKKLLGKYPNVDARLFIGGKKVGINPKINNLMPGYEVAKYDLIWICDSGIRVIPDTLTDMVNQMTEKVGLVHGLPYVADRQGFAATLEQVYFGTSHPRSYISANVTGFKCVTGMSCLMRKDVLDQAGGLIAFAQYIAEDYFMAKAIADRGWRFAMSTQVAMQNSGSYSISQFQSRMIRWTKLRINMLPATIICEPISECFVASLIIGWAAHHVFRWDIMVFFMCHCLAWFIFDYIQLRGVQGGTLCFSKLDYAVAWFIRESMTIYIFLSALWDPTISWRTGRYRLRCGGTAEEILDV
The assay can be described thus: GCS enzymatic assay (MDCK cell lysate, NBD-ceramide to glucosylceramide, LC/MS). It counts as biochemical, canine. The settings on record: Table 2, the table does not say which of the assays; for IC50: class symbols A, B, C, read-out: Data Range (IC50 values); for Data Range (% inhibition): class symbols D, E, F, NA (not active). An outline of the steps: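 Dog MDCK cell lysate served as enzyme source, with NBD-ceramide turned over to glucosylceramide and 0.1% DMSO as mock control. The reaction was stopped with acetonitrile. Both lipids were quantified by LC/MS/MS in ESI positive MRM mode against a tolbutamide internal standard, giving IC50 or percent inhibition.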

For the molecule `O=C(N[C@H](CN1CCCC1)[C@H](O)c1ccc2c(c1)OCCO2)[C@@H]1CCN(c2ccc3ccccc3n2)C1` [Compound 72, (R)-N-((1R,2R)-1-(2,3-dihydrobenzo[b][1,4]dioxin-6-yl)-1-hydroxy-3-(pyrrolidin-1-yl)propan-2-yl)-1-(quinolin-2-yl)pyrrolidine-3-carboxamide], the IC50 fell in the range of 1 to 30 nM.
With `O=C(N[C@H](CN1CCCC1)[C@H](O)c1ccc2c(c1)OCCO2)C1CCN(c2ccc3ccccc3n2)C1` (stereo partly drawn) [Compound 72A, N-((1R,2R)-1-(2,3-dihydrobenzo[b][1,4]dioxin-6-yl)-1-hydroxy-3-(pyrrolidin-1-yl)propan-2-yl)-1-(quinolin-2-yl)pyrrolidine-3-carboxamide], the “Data Range (% inhibition)” value is recorded as “D (75-100%)”.
Still for that read-out and setting: with `O=C(N[C@H](CN1CCCC1)[C@H](O)c1ccc2c(c1)OCCO2)[C@H]1CCN(c2ccc3ccccc3n2)C1` [Compound 72B, (S)-N-((1R,2R)-1-(2,3-dihydrobenzo[b][1,4]dioxin-6-yl)-1-hydroxy-3-(pyrrolidin-1-yl)propan-2-yl)-1-(quinolin-2-yl)pyrrolidine-3-carboxamide] the entry was “F (1-49% (or less than 50%))”.
For the molecule `O=C(N[C@H](CN1CCC1)[C@H](O)c1ccc(OC2CC2)c(Cl)c1)[C@@H]1CCN(c2ccc(Cl)cc2)C1` [Compound 73, (R)-N-((1R,2R)-3-(azetidin-1-yl)-1-(3-chloro-4-cyclopropoxyphenyl)-1-hydroxypropan-2-yl)-1-(4-chlorophenyl)pyrrolidine-3-carboxamide], the IC50 was in the range of 1 to 30 nM.
On to `O=C(N[C@H](CN1CCCC1)[C@H](O)c1ccc(N2CCOCC2)c(Cl)c1)[C@@H]1CCN(c2ccc(Cl)cc2)C1` [Compound 74, (R)-N-((1R,2R)-1-(3-chloro-4-morpholinophenyl)-1-hydroxy-3-(pyrrolidin-1-yl)propan-2-yl)-1-(4-chlorophenyl)pyrrolidine-3-carboxamide], for which the “Data Range (% inhibition)” value is “D (75-100%)”.
The same measure, in the same setting: with `O=C(N[C@H](CN1CCCC1)[C@H](O)c1ccc(N2CCOCC2)c(Cl)c1)[C@H]1CCN(c2ccc(Cl)cc2)C1` [Compound 74C, (S)-N-((1R,2R)-1-(3-chloro-4-morpholinophenyl)-1-hydroxy-3-(pyrrolidin-1-yl)propan-2-yl)-1-(4-chlorophenyl)pyrrolidine-3-carboxamide] the entry was “NA (not active—a negative value was generated for % inhibition)”.
As for `O=C(N[C@H](CN1CCCC1)[C@H](O)c1ccc(OC2CC2)c(Cl)c1)[C@@H]1CCN(c2cccc(Oc3ccccn3)c2)C1` [Compound 75, (R)-N-((1R,2R)-1-(3-chloro-4-cyclopropoxyphenyl)-1-hydroxy-3-(pyrrolidin-1-yl)propan-2-yl)-1-(3-(pyridin-2-yloxy)phenyl)pyrrolidine-3-carboxamide], the IC50 fell in the range of 1 to 30 nM.
Take `O=C(N[C@H](CN1CCCC1)[C@H](O)c1ccc(OC2CC2)c(Cl)c1)[C@H]1CCN(c2cccc(Oc3ccccn3)c2)C1` [Compound 75E, (S)-N-((1R,2R)-1-(3-chloro-4-cyclopropoxyphenyl)-1-hydroxy-3-(pyrrolidin-1-yl)propan-2-yl)-1-(3-(pyridin-2-yloxy)phenyl)pyrrolidine-3-carboxamide]: the “Data Range (% inhibition)” value is “D (75-100%)”.
For `O=C(N[C@H](CN1CCCC1)[C@H](O)c1ccc2c(c1)OCCO2)[C@@H]1CCN(c2ccc3cc(Cl)sc3c2)C1` [Compound 76, (R)-1-(2-chlorobenzo[b]thiophen-6-yl)-N-((1R,2R)-1-(2,3-dihydrobenzo[b][1,4]dioxin-6-yl)-1-hydroxy-3-(pyrrolidin-1-yl)propan-2-yl)pyrrolidine-3-carboxamide], the IC50 fell in the range of 30 to 100 nM.
As for `O=C(N[C@H](CN1CCCC1)[C@H](O)c1ccc2c(c1)OCCO2)C1CCN(c2ccc3cc(Cl)sc3c2)C1` (stereo partly drawn) [Compound 76D, 1-(2-chlorobenzo[b]thiopen-6-yl)-N-((1R,2R)-1-(2,3-dihydrobenzo[b][1,4]dioxin-6-yl)-1-hydroxy-3-(pyrrolidin-1-yl)propan-2-yl)pyrrolidine-3-carboxamide], the IC50 is 1 to 30 nM.
